# Measurements published in patent publication US20090030037A1, “Sustained Release Formulation and Dosing Schedules of Leukotriene Synthesis Inhibitor for Human Therapy” (deCODE Genetics ehf., priority 2005, published 2009).
# Entries after “also recorded” stand apart in the source; their conditions may differ.
# Legend:
# [1] = test system: MPO; experiment: Study DG-031-204: plasma MPO; type: in vivo, human; settings: for Serum MPO (% change from baseline), mean response: after 4 weeks of DG-031 administration
# Experimental: (§1) An additional single site, open label study was carried out to obtain biomarker and safety data on additional DG-031 doses (i.e., 1000 mg and 1500 mg). This study examined the safety, tolerability and dose-related effects of DG-031 on inflammatory biomarkers including: LTB4, hsCRP, and MPO. A total of 119 patients with a prior history of CAD and MI were randomized to receive either 1000 mg DG-031 (500 mg BID) or 1500 mg DG-031 (500 mg TID) daily for 4-6 weeks. Treatment with DG-031 in addition to the subject's standard care, medication, and treatment, was prescribed by the patient's cardiologist. A majority of the subjects received statin therapy before, during and after the study. Follow-up assessments were performed 2 weeks after the end of study drug administration.
# The biomarkers were analyzed as described in Example 1. Statistical analysis of the data was carried out using a one-sample t-test on change from baseline with a two-sided nominal significance level of 0.050. Biomarker concentrations were log-transformed and a simple last observation carried forward (LOCF) scheme was used to impute missing observations.
# Plasma MPO concentration was measured weekly. MPO measurements in ionomycin-stimulated whole blood were also measured in a subset of patients at 4 weeks.
# [2] = test system: LTB4; experiment: Study DG-031-204: ionomycin-stimulated LTB4 in whole blood; type: in vivo, human; settings: for Stimulated LTB4 (% change from baseline, whole blood, WBC corrected, 15 minute): after 4 weeks
# Experimental: Briefly, the cell pellets from the Ficoll gradient were harvested and the red blood cells were subsequently lysed in 0.165 M NH4CL for 10 minutes on ice. After washing with PBS, neutrophils were counted and plated at 2×10^6 cells/ml in 4 ml cultures of 15% Fetal calf serum (FCS) (GIBCO BRL) in RPMI-1640 (GIBCO BRL). The cells were then stimulated with maximum effective concentration of ionomycin (1 μM). At 0, 15, 30, 60 minutes post ionomycin addition 600 μl of culture medium was aspirated and stored at −80° C. for the measurement of LTB4 release as described below. The cells were maintained at 37° C. in a humidified atmosphere of 5% CO2/95% air. All samples were treated with indomethasine (1 μM) to block the cyclooxygenase enzyme. The experimental conditions are described above.
# LTB4 Immunoassay Assay Design was used to quantitate LTB4 concentration in supernatant from cultured ionomycin stimulated neutrophils. The assay used is based on the competitive binding technique in which LTB4 present in the testing samples (200 μl) competes with a fixed amount of alkaline phosphatase-labelled LTB4 for sites on a rabbit polyclonal antibody. During the incubation, the polyclonal Ab becomes bound to a goat anti-rabbit Ab coated onto the microplates. Following a wash to remove excess conjugate and unbound sample, a substrate solution is added to the wells to determine the bound enzyme activity. The color development is stopped and the absorbance is read at 405 nm. The intensity of the color is inversely proportional to the concentration of LTB4 in the sample. Each LTB4 measurement using the LTB4 Immunoassay, was done in duplicate. […]
# The biomarkers were analyzed as described in Example 1. […]
# Serum was collected weekly for determination of LTB4 concentration in response to the treatment with DG-031. […] Stimulated LTB4 effects measured in study DG-031-204, as shown in the raw data set out in Table 12, appear consistent with projections from the exposure-response analysis based on data from studies DG-031-201 and DG-031-203. […]
# [3] = healthy volunteers, total daily dose 100-1000 mg, less than 14 days; cited from earlier work
# [4] = test system: MPO; experiment: Study DG-031-203: plasma MPO; type: in vivo, human; settings: 250 mg TID, 6 hours after intake
# Experimental: The study also collected information on the dose-related effect of DG-031 on capacity for LTB4 production (ex vivo), plasma MPO, and serum-CRP. […] The pattern observed supported a concentration dependent pharmacologic effect of DG-031 on capacity for LTB4 production measured ex vivo. The effects on LTB4 production amounted to a 30% (p=0.016) and 25% (p=0.094) reduction with the 375 mg BID and 250 mg TID doses, respectively.
# [5] = Study DG-031-204: adverse events; type: in vivo; settings: for SAE Description: single patients
# Experimental: as §1
# A total of 5 patients reported 8 serious adverse events (SAE). One death was reported during the trial. All SAE's were consistent with underlying CAD disorders (see Table 16). A total of 88 of 119 patients reported 203 adverse events. The most commonly reported adverse events (and number of cases reported) included: cold (27), headache (13), constipation/diarrhea (6/8), and vertigo (5).
# [6] = Study DG-031-204: creatine kinase; type: in vivo, human; settings: 500 mg BID or TID
# Experimental: as §1
# (§2) Liver function tests (AST, ALT, GGT) were assessed weekly during study drug administration and two weeks after dosing. […] Serum creatinine (Cr) was measured weekly during study drug administration and two weeks after dosing. In both the 500 mg BID and 500 mg TID treatment groups, mean serum Cr concentrations increased 4-5% relative to baseline levels. At the 2-week follow up visit, mean serum Cr returned to baseline in the cohort treated for 4 weeks, but remained elevated in the group treated for 6 weeks. Creatine kinase (CK) measurements were obtained weekly during study drug administration and two weeks after dosing.
# [7] = Study DG-031-204: serum creatinine; type: in vivo, human; settings: both 500 mg BID and 500 mg TID groups
# Experimental: as §1, §2
# [8] = 119 patients, 500 mg BID or TID, 4-6 weeks
structure (smiles),measurement,setting,value
"O=C(O)[C@@H](c1ccc(OCc2ccc3ccccc3n2)cc1)C1CCCC1 [DG-031, (R)-(+)-alpha-cyclopentyl-4-(2-quinolinylmethoxy)-Benzeneacetic acid]","Plasma MPO concentrations, change from baseline","[1]; 500 mg BID or TID, measured weekly",No changes from baseline
same,"Serum MPO (% change from baseline), mean response",[1]; 1000 mg (500 mg BID),+3%
same,"Serum MPO (% change from baseline), mean response",[1]; 1500 mg (500 mg TID),−12%
same,"Reduction of LTB4 levels, ionophore-stimulation assay",[2]; 500 mg BID,35%
same,"Stimulated LTB4 (% change from baseline, whole blood, WBC corrected, 15 minute)",[2]; 1000 mg (500 mg BID),−44%
same,"Stimulated LTB4 (% change from baseline, whole blood, WBC corrected, 15 minute)",[2]; 1500 mg (500 mg TID),−28%
same,Safety and tolerability,[3],safe and well tolerated
same,Reduction of plasma MPO levels,[4],37%
same,SAE Description,[5]; 1000 mg treatment,"Cardiac arrest,; also recorded: Subarachnoid hemorrhage; also recorded: Angiography,; also recorded: Repair of Carotid artery; also recorded: Myocardial infarction; also recorded: Unstable angina; also recorded: Myocardial infarction,"
same,SAE Description,[5]; 1500 mg treatment,Congestive heart failure
same,Adverse events reported,[5]; 119 patients,203
same,Cases of cold,[5]; 119 patients,27
same,Cases of constipation,[5]; 119 patients,6
same,Cases of diarrhea,[5]; 119 patients,8
same,Cases of headache,[5]; 119 patients,13
same,Cases of vertigo,[5]; 119 patients,5
same,Deaths reported during the trial,"[5]; 119 patients, 500 mg BID or TID",One
same,Patients reporting serious adverse events,[5]; [8],5
same,Serious adverse events (SAE) reported,[5]; [8],8
same,Patients reporting adverse events,[5]; of 119 patients,88
same,Mean CK concentrations,[6],No adverse trends
same,Increase of mean serum Cr concentrations relative to baseline,[7],4-5%
